This experiment concerns the target yHsp90 (yeast Hsp90, Hsp82) (Saccharomyces cerevisiae, UniProt P02829). Kind of experiment: Kd determination. Type of experiment: binding.

yHsp90 (yeast Hsp90, Hsp82), sequence (P02829 whole entry): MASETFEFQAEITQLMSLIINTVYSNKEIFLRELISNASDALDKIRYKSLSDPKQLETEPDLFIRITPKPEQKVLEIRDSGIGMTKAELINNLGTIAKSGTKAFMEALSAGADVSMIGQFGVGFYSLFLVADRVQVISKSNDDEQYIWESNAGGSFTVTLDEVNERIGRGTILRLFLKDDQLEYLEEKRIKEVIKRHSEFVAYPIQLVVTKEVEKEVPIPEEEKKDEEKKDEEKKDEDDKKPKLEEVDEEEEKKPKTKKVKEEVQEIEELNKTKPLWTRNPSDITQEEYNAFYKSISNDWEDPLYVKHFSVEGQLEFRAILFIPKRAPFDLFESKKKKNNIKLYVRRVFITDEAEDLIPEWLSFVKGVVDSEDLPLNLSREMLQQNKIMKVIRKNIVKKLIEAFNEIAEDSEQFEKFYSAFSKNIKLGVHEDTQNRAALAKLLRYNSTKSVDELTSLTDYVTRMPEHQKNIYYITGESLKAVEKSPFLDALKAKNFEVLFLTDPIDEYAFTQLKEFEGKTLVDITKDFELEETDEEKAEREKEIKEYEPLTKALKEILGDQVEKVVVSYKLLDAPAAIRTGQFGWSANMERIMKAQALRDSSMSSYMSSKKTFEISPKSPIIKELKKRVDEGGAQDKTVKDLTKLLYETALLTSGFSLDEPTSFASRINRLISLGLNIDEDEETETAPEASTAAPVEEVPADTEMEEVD

In the case of `Nc1ncnc2c1ncn2[C@@H]1O[C@H](CO[P@](=O)(O)O[P@](=O)(O)NP(=O)(O)O)[C@@H](O)[C@H]1O` [AMPPNP], the Kd result was “Kd of each protein for AMPPNP is shown in inset”.
